Measured values published in EP4737450A1 (Longwood Pharmaceuticals (Hangzhou) Co., Ltd, priority 2023, dated 2025).
pIC50: −log10 of the molar value. Read-outs that look alike come from different tables or passages of the source.

How the values were obtained:
plasma kallikrein (PKa) = target: T1, plasma kallikrein (PKa) (Homo sapiens, UniProt P03952); assay: Inhibitory activity against plasma kallikrein in vitro (fluorescence intensity enzyme assay, Pro-Phe-Arg-AMC substrate); assay type: biochemical; conditions: read-out: PKa IC50
T1 construct: purchased R & D 2497-SE
T1 sequence (P03952 391-638 limits assumed): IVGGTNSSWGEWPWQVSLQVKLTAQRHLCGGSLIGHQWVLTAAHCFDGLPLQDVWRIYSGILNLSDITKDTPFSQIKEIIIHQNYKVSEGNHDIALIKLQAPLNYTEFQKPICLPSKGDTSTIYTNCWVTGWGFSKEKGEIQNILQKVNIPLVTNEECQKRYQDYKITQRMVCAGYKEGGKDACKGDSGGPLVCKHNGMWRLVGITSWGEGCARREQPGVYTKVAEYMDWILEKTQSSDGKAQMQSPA
T1 sequence (P03952 20-390 partner limits assumed): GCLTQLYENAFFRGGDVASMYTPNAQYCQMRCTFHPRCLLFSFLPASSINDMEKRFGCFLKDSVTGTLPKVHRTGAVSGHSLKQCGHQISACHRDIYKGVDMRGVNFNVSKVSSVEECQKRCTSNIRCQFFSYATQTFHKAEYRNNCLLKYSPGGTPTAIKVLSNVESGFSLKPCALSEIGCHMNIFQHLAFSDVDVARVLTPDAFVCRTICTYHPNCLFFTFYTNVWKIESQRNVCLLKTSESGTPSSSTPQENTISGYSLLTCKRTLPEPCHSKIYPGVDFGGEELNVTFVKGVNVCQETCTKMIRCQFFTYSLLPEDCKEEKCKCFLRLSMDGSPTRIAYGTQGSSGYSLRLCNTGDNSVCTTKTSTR
Procedure, shortened: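 Fluorescence intensity enzyme assay with 10 nM enzyme and 60 µM Pro-Phe-Arg-AMC (final concentrations). Compounds in DMSO, tested in duplicate over a dose series. IC50 from nonlinear regression curve fitting.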

KLK1 = KLK1 (Homo sapiens, UniProt P06870); assay: Inhibitory activity against KLK1 in vitro (biochemical assay); conditions: values given in µM
Sequence of KLK1 (P06870 25-262, species assumed): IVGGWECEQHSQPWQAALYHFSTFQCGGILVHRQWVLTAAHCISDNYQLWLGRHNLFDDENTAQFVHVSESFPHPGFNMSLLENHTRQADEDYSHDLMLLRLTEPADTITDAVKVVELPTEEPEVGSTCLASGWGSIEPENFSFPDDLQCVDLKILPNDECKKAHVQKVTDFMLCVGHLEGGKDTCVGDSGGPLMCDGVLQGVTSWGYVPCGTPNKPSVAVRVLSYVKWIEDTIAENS
Description: Test Example 1. Test of the inhibitory activities of the compounds of the present invention against plasma kallikrein (PKa), KLK1 and FXIa in vitro. […]

FXIa = FXIa (Homo sapiens, UniProt P03951); assay: Inhibitory activity against FXIa in vitro (biochemical assay); conditions: values given in µM
Sequence of FXIa (P03951 388-625 limits assumed): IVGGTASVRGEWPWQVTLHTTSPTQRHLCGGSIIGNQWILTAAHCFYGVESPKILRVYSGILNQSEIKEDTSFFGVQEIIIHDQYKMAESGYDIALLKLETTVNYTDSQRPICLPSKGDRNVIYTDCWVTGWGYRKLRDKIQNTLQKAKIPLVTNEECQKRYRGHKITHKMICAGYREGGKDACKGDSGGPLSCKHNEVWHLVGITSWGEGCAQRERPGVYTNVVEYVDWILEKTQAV
Sequence of FXIa (P03951 19-387 partner limits assumed): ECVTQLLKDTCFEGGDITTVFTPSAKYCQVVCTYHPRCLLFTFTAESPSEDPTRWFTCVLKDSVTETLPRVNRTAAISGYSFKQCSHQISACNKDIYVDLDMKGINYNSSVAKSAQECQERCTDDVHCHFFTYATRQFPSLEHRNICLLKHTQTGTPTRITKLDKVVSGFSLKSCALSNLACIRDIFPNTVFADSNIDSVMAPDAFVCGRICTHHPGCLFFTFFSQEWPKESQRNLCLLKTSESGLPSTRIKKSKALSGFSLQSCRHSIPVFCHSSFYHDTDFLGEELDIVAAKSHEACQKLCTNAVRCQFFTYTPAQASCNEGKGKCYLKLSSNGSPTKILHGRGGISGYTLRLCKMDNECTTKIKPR
Procedure: Test Example 1. Test of the inhibitory activities of the compounds of the present invention against plasma kallikrein (PKa), KLK1 and FXIa in vitro.
PKK (R & D, Cat # 2497-SE) and Pro-Phe-Arg-AMC (Nanjing Peptide, Cat # NJP23946) solutions were prepared in reaction buffer (50 mM Tris-HCl, pH 7.5, 250 mM NaCl). The final concentrations of enzyme protein and Pro-Phe-Arg-AMC in the reaction mixture were 10 nM and 60 µM, respectively. The starting concentration of the positive reference substance Avoralstat was 100 nM, 3-fold dilution, 10 + 0 dose. 0.05 µL of compound in 100% DMSO was delivered to a 384-well plate by an acoustic liquid delivery technique (Echo665; nanoliter range). Compound duplex test. 5 µL of 2 × enzyme solution was transferred to a 384 reaction plate and centrifuged at 1000 rpm for 1 minute, incubated at 25°C for 15 minutes; 5 µL of 2 × Pro-Phe-Arg-AMC solution was transferred to a 384 reaction plate, centrifuged at 1000 rpm for 1 minute, incubated at 25°C for 3 hours. […] IC50 values and nonlinear regression curve fitting were obtained using GraphPad Prism software.

[1] = plasma kallikrein enzyme assay, Pro-Phe-Arg-AMC substrate

| Compound | pIC50 (plasma kallikrein (PKa); [1]) | IC50 (KLK1) [µM] | IC50 (FXIa) [µM] | pIC50 (plasma kallikrein (PKa)) |
| --- | --- | --- | --- | --- |
| COCc1nn(Cc2ccc(N3CC4C(C3)C4(F)F)cc2C#N)cc1C(=O)NCc1cc2cnccc2[nH]1 (stereo not shown) [Compound 157, N-((1H-pyrrolo[3,2-c]pyridin-2-yl)methyl)-1-(2-cyano-4-(6,6-difluoro-3-azabicyclo[3.1.0]hexan-3-yl)benzyl)-3-(methoxymethyl)-1H-pyrazole-4-carboxamide] | 8.72 | > 10 | > 10 | – |
| Cc1cc(N)nc(C)c1CNC(=O)c1nnc(Cc2ccc(Cn3ccccc3=O)cc2)[nH]1 [Compound 44] | 9.41 | > 10 | > 10 | – |
| Cn1cnc2c1CC[C@H]2NC(=O)c1cn(Cc2cn3cc(C4CC4)ccc3n2)nn1 [Compound 35] | 8.78 | > 10 | > 10 | – |
| O=C(NCc1ncc2c(c1F)NCC2)c1cn(Cc2ccc(Cn3ccccc3=O)cc2)nc1C(F)(F)F [Compound 390] | 8.69 | > 10 | > 10 | – |
| Cn1cnc2cnc(CNC(=O)c3cnn(Cc4ccc(Cn5ccccc5=O)cc4)c3)c(F)c21 [Compound 377] | 8.85 | > 10 | > 10 | – |
| Cc1cc(N)nc(C)c1CNC(=O)c1ccn(Cc2ccc(Cn3cccc(C)c3=O)cc2)n1 [Compound 75] | 9.66 | > 10 | > 10 | – |
| COCc1nn(Cc2ccc(C3CCCCC3)c(C(F)(F)F)c2)cc1C(=O)NCc1ccc(C(=N)N)cc1 [Compound 153] | 9.74 | > 10 | > 10 | – |
| COCc1nn(Cc2ccc(Cn3cc(F)ccc3=O)cc2)cc1C(=O)NCc1c(C)cc(N)nc1C [Compound 24] | 9.76 | > 10 | > 10 | – |
| COc1ccnc(CNC(=O)c2cn(Cc3ccc(Cn4ccccc4=O)cc3)nc2CN2CCN(C)CC2)c1F [Compound 213] | 7.46 | > 10 | > 10 | – |
| O=C(NCc1cc2ccncc2[nH]1)c1cn(Cc2ccc(Cn3ccccc3=O)cc2)nc1C(F)(F)F [Compound 155] | 8.83 | > 10 | > 10 | – |
| N#Cc1cc(N2CCC(F)(F)CC2)ccc1Cn1cc(C(=O)NCc2ccc(C(=N)N)cc2)cn1 [Compound 158] | – | > 10 | > 10 | – |
| COc1ccnc(CNC(=O)c2cn(Cc3ccc(Cn4ccccc4=O)cc3)nc2-c2c(C)cnn2C)c1F [Compound 221, N-((3-fluoro-4-methoxypyridin-2-yl)methyl)-2',4'-dimethyl-1-(4-((2-oxopyridin-1(2H)yl)methyl)benzyl)-1H,2'H-[3,3'-bispyrazole]-4-carboxamide] | – | > 10 | > 10 | – |
| COCc1nn(Cc2ccc(Cn3ccccc3=O)cc2)cc1C(=O)NCc1ncc2c(c1F)N(C)CC2 [Compound 146] | – | > 10 | > 10 | – |
| Cc1cc(N)nc(C)c1CNC(=O)c1cnn(Cc2ccc(N3CC4C(C3)C4(F)F)cc2C#N)c1 (stereo not shown) [Compound 20] | – | – | > 10 | 9.81 |
| Nc1cc2c(cn1)C(NC(=O)c1ncn(Cc3c(F)c(F)c(Cn4ccccc4=O)c(F)c3F)n1)CC2 (stereo not shown) [Compound 51] | < 7.00 | – | – | – |
| COCc1nn(Cc2ccc(Cn3ccccc3=O)cc2)cc1C(=O)NCc1nccc(OC)c1F [KVD900, reference compound] | – | > 10 | > 10 | – |
| COc1ccc(F)c(CNC(=O)c2cn(Cc3ccc(Cn4ccccc4=O)cc3)nc2C2(OC)CCC2)c1F [Compound 258] | 7.20 | – | – | – |
| COCC1(F)CN(c2nn(Cc3ccc(Cn4ccccc4=O)cc3)cc2C(=O)NCc2nccc(OC)c2F)C1 [Compound 223] | 7.92 | – | – | – |
| COc1ccnc(COC(=O)c2cn(Cc3ccc(Cn4cc(F)ccc4=O)cc3)nc2NC2(C)COC2)c1F [Compound 284] | 8.47 | – | – | – |
| O=C(NCc1nccc(NC2CCC2)c1F)c1cn(Cc2ccc(Cn3ccccc3=O)cc2)nc1C1COC1 [Compound 273] | < 6.00 | – | – | – |
| COCc1nn(Cc2ccc(N3CC4C(C3)C4(F)F)cc2C#N)cc1C(=O)NCc1c(C)cn2cncc2c1C (stereo not shown) [Compound 188] | 8.56 | – | – | – |
